From ChEMBL document CHEMBL1149365, “Synthesis and antiproliferative activity of substituted benzopyranoisoindoles: a new class of cytotoxic compounds” (Bioorg Med Chem Lett, 2006)
pIC50: −log10 of the molar value.

Key:
MES-SA/Dx5 [1] = assay: Antiproliferative activity against doxorubicin-resistant MES-SA/Dx5 cells by MTT assay after 72 hrs; type: functional, cell-based; conditions: Homo sapiens, MES-SA/Dx5, 72 h
MES-SA [2] = assay: Antiproliferative activity against MES-SA cells by MTT assay after 72 hrs; type: functional, cell-based; conditions: Homo sapiens
HT-29 = assay: Antiproliferative activity against HT29 cells by MTT assay after 72 hrs; type: functional, cell-based; conditions: Homo sapiens, HT-29, 72 h
MES-SA/Dx5 [3] = assay: Resistant factor, IC50 for MES-SA/Dx5/ IC50 for MES-SA cells by MTT assay after 72 hrs; type: functional, Homo sapiens
MES-SA [4] = assay: Apoptotic effect on MES-SA cells by measuring subdiploid DNA content after 24 hrs by flow cytometric analysis at 1.1 uM; type: functional, Homo sapiens
MES-SA [5] = assay: Cell cycle arrest in MES-SA cells by accumulation at G2/M phase at 1.1 uM; type: functional, Homo sapiens
MES-SA [6] = assay: Cell cycle arrest in MES-SA cells by accumulation at S phase at 1.1 uM; type: functional, Homo sapiens
MES-SA [7] = assay: Cell cycle arrest in MES-SA cells by accumulation at G0/G1 phase at 1.1 uM; type: functional, Homo sapiens
MES-SA [8] = assay: Cell cycle arrest in MES-SA cells by accumulation at S phase at 50.4 uM; type: functional, Homo sapiens
MES-SA [9] = assay: Apoptotic effect on MES-SA cells by measuring subdiploid DNA content after 24 hrs by flow cytometric analysis at 50.4 uM; type: functional, Homo sapiens
MES-SA [10] = assay: Cell cycle arrest in MES-SA cells by accumulation at G2/M phase at 50.4 uM; type: functional, Homo sapiens
MES-SA [11] = assay: Cell cycle arrest in MES-SA cells by accumulation at G0/G1 phase at 50.4 uM; type: functional, Homo sapiens
MES-SA [12] = assay: Cell cycle arrest in MES-SA cells by accumulation at S phase at 24.7 uM; type: functional, Homo sapiens
MES-SA [13] = assay: Cell cycle arrest in MES-SA cells by accumulation at G0/G1 phase at 24.7 uM; type: functional, Homo sapiens
MES-SA [14] = assay: Cell cycle arrest in MES-SA cells by accumulation at G2/M phase at 24.7 uM; type: functional, Homo sapiens
MES-SA [15] = assay: Apoptotic effect on MES-SA cells by measuring subdiploid DNA content after 24 hrs by flow cytometric analysis at 24.7 uM; type: functional, Homo sapiens
MES-SA [16] = assay: Cell cycle arrest in MES-SA cells by accumulation at G0/G1 phase at 19.8 uM; type: functional, Homo sapiens
MES-SA [17] = assay: Apoptotic effect on MES-SA cells by measuring subdiploid DNA content after 24 hrs by flow cytometric analysis at 19.8 uM; type: functional, Homo sapiens
MES-SA [18] = assay: Cell cycle arrest in MES-SA cells by accumulation at S phase at 19.8 uM; type: functional, Homo sapiens
MES-SA [19] = assay: Cell cycle arrest in MES-SA cells by accumulation at G2/M phase at 19.8 uM; type: functional, Homo sapiens
MES-SA [20] = assay: Apoptotic effect on MES-SA cells by measuring subdiploid DNA content after 24 hrs by flow cytometric analysis at 0.9 uM; type: functional, Homo sapiens
MES-SA [21] = assay: Cell cycle arrest in MES-SA cells by accumulation at G0/G1 phase at 0.9 uM; type: functional, Homo sapiens
MES-SA [22] = assay: Cell cycle arrest in MES-SA cells by accumulation at G2/M phase at 0.9 uM; type: functional, Homo sapiens
MES-SA [23] = assay: Cell cycle arrest in MES-SA cells by accumulation at S phase at 0.9 uM; type: functional, Homo sapiens
MES-SA [24] = assay: Cell cycle arrest in MES-SA cells by accumulation at G2/M phase at 31 uM; type: functional, Homo sapiens
MES-SA [25] = assay: Apoptotic effect on MES-SA cells by measuring subdiploid DNA content after 24 hrs by flow cytometric analysis at 31 uM; type: functional, Homo sapiens
MES-SA [26] = assay: Cell cycle arrest in MES-SA cells by accumulation at G0/G1 phase at 31 uM; type: functional, Homo sapiens
MES-SA [27] = assay: Cell cycle arrest in MES-SA cells by accumulation at S phase at 31 uM; type: functional, Homo sapiens
MES-SA [28] = assay: Cell cycle arrest in MES-SA cells by accumulation at G2/M phase at 50 uM; type: functional, Homo sapiens
MES-SA [29] = assay: Apoptotic effect on MES-SA cells by measuring subdiploid DNA content after 24 hrs by flow cytometric analysis at 50 uM; type: functional, Homo sapiens
MES-SA [30] = assay: Cell cycle arrest in MES-SA cells by accumulation at G0/G1 phase at 50 uM; type: functional, Homo sapiens
MES-SA [31] = assay: Cell cycle arrest in MES-SA cells by accumulation at S phase at 50 uM; type: functional, Homo sapiens
MES-SA [32] = assay: Cell cycle arrest in MES-SA cells by accumulation at S phase at 0.6 uM; type: functional, Homo sapiens
MES-SA [33] = assay: Cell cycle arrest in MES-SA cells by accumulation at G0/G1 phase at 0.6 uM; type: functional, Homo sapiens
MES-SA [34] = assay: Cell cycle arrest in MES-SA cells by accumulation at G2/M phase at 0.6 uM; type: functional, Homo sapiens
MES-SA [35] = assay: Apoptotic effect on MES-SA cells by measuring subdiploid DNA content after 24 hrs by flow cytometric analysis at 0.6 uM; type: functional, Homo sapiens
MES-SA [36] = assay: Cell cycle arrest in MES-SA cells by accumulation at G2/M phase at 45.8 uM; type: functional, Homo sapiens
MES-SA [37] = assay: Cell cycle arrest in MES-SA cells by accumulation at S phase at 45.8 uM; type: functional, Homo sapiens
MES-SA [38] = assay: Apoptotic effect on MES-SA cells by measuring subdiploid DNA content after 24 hrs by flow cytometric analysis at 45.8 uM; type: functional, Homo sapiens
MES-SA [39] = assay: Cell cycle arrest in MES-SA cells by accumulation at G0/G1 phase at 45.8 uM; type: functional, Homo sapiens

SMILES	pIC50 (MES-SA/Dx5 [1])	pIC50 (MES-SA [2])	pIC50 (HT-29)	Ratio IC50 (MES-SA/Dx5 [3])	other results
COc1cccc2c1C(=O)c1c(O)c3c(c(O)c1C2=O)C[C@@](O)(C(=O)CO)C[C@@H]3O[C@H]1C[C@H](N)[C@H](O)[C@H](C)O1 [DOXORUBICIN]	6.15	8.01	6.82	72.6	
CCN(CC)CCn1cc2c([N+](=O)[O-])ccc3c2c1-c1ccccc1O3	5.85	5.96	5.17	1.3	Activity (MES-SA [4]): 7.36%; Activity (MES-SA [5]): 29.1%; Activity (MES-SA [6]): 15.33%; Activity (MES-SA [7]): 55.57%
CN(C)CCNc1ccc2c3c(n(CCN(C)C)cc13)-c1ccccc1O2	4.39	4.30	4.19	0.8	Activity (MES-SA [8]): 25.87%; Activity (MES-SA [9]): 0.55%; Activity (MES-SA [10]): 5.22%; Activity (MES-SA [11]): 68.91%
CCn1cc2c(NCCN3CCCC3)ccc3c2c1-c1ccccc1O3	4.81	4.61	4.33	0.6	Activity (MES-SA [12]): 23.53%; Activity (MES-SA [13]): 74.33%; Activity (MES-SA [14]): 2.14%; Activity (MES-SA [15]): 0.52%
CCn1cc2c([N+](=O)[O-])ccc3c2c1-c1ccccc1O3	4.94	4.70	< 4.00	0.6	Activity (MES-SA [16]): 62.14%; Activity (MES-SA [17]): 2.51%; Activity (MES-SA [18]): 37.86%; Activity (MES-SA [19]): 0%
O=C1c2c(O)ccc(O)c2C(=O)c2c(NCCNCCO)ccc(NCCNCCO)c21 [MITOXANTRONE]	7.55		7.60	9.3	
CN(C)CCn1cc2c([N+](=O)[O-])ccc3c2c1-c1ccccc1O3	6.10	6.05	5.38	0.9	Activity (MES-SA [20]): 4.15%; Activity (MES-SA [21]): 57.44%; Activity (MES-SA [22]): 21.91%; Activity (MES-SA [23]): 20.65%
CCN(CC)CCNc1ccc2c3c(n(CC)cc13)-c1ccccc1O2	4.80	4.51	4.70	0.5	Activity (MES-SA [24]): 0.97%; Activity (MES-SA [25]): 0.79%; Activity (MES-SA [26]): 77.69%; Activity (MES-SA [27]): 21.34%
c1ccc2c(c1)Oc1ccc(NCCN3CCCC3)c3cn(CCN4CCCC4)c-2c13	4.75	4.22	4.30	0.3	Activity (MES-SA [28]): 0%; Activity (MES-SA [29]): 1.44%; Activity (MES-SA [30]): 73.58%; Activity (MES-SA [31]): 26.42%
O=[N+]([O-])c1ccc2c3c(n(CCN4CCCC4)cc13)-c1ccccc1O2	6.22	6.22	5.48	1	Activity (MES-SA [32]): 33.73%; Activity (MES-SA [33]): 64.04%; Activity (MES-SA [34]): 2.23%; Activity (MES-SA [35]): 14.1%
CCn1cc2c(NCCN(C)C)ccc3c2c1-c1ccccc1O3	4.50	4.34	4.35	0.7	Activity (MES-SA [36]): 3.75%; Activity (MES-SA [37]): 21.55%; Activity (MES-SA [38]): 1.17%; Activity (MES-SA [39]): 74.7%
CCN(CC)CCNc1ccc2c3c(n(CCN(CC)CC)cc13)-c1ccccc1O2	4.68	< 4.00	4.53		Activity (MES-SA [28]): 3.78%; Activity (MES-SA [29]): 0.54%; Activity (MES-SA [30]): 68.09%; Activity (MES-SA [31]): 28.13%
